Assay results reported in US20240342227A1, “COMBINATION OF E. FAECALIS AND AN ANTI-INFLAMMATORY AGENT AND USES THEREOF IN THE PREVENTION AND/OR TREATMENT OF RESPIRATORY DISEASES” (INSTITUT NATIONAL DE RECHERCHE POUR L'AGRICULTURE, …, priority 2021, published 2024).
Entries after “also recorded” stand apart in the source; their conditions may differ.

System: BEAS-2B cells
Assay: IL-8 release induced by TNF-α on BEAS-2B cells (ELISA on supernatant after 6 h)
Format: cell-based, human
Description: BEAS-2B cells were co-incubated with TNF-α (1 pg/mL) alone or with different doses of budesonide (1.5; 0.75; 0.5; 0.1 nM). After 6 hours of incubation, the IL-8 concentration was measured in the supernatant. IL-8 levels are expressed as a percentage of the IL-8 level induced by stimulation with TNF-α for 6 hours. The results correspond to the mean+SEM for at least 3 experiments, n=6-12 technical replicates. *p<0.05 and ***p<0.001 compared with the TNF-α control group.
BEAS-2B cells were co-incubated with TNF-α (1 pg/mL) alone or with a strain of E. faecalis (CNCM I-4969; I-5701; I-5699) MOI 10:1, and/or 0.1 nM of budesonide, or 0.5 nM of budesonide. After 6 hours of incubation, the IL-8 concentration was measured in the supernatant by ELISA. IL-8 levels are expressed as a percentage of the IL-8 level induced by stimulation with TNF-α for 6 hours. The results correspond to the median of 3 experiments, n=9 technical replicates. *p<0.05 and ***p<0.001 compared with the TNF-α control group, by a Kruskal-Wallis non-parametric test followed by Dunn's post-test.
Human bronchial cells (BEAS-2B) are cultured and a pro-inflammatory situation is induced via the addition of TNF-α to the medium. The BEAS-2B cells then respond by releasing IL-8 into the medium. The IL-8 assay after 6 hours is used to estimate the activation state of the cells, which can be reduced by adding an anti-inflammatory agent.

CCCC1O[C@@H]2C[C@H]3[C@@H]4CCC5=CC(=O)C=C[C@]5(C)[C@H]4[C@@H](O)C[C@]3(C)[C@]2(C(=O)CO)O1 (stereo partly drawn) [budesonide]
inhibition at 0.0005 µM (Homo sapiens, BEAS-2B, budesonide alone at 5-times higher dose (0.5 nM), TNF-α-stimulated BEAS-2B): 50%
inhibition of IL-8 release (budesonide alone at 5-times higher dose (0.5 nM), TNF-α-stimulated BEAS-2B, 0.0005 µM): 55%
effect on the release of IL-8 induced by TNF-α (budesonide alone, 0.1 nM, BEAS-2B): do not have any effect; also recorded: no effect
